Measurements published in US11690824B2, “Antibacterial compounds” (THE GENERAL HOSPITAL CORPORATION, priority 2018, dated 2023).
Converted amounts (≈) assume the structure as drawn. Read-outs that look alike come from different tables or passages of the source.

Legend:
K. pneumoniae WGLW2 = test: MIC assay; format: cell-based, Klebsiella pneumoniae; conditions: Klebsiella pneumoniae
Text: (§1) Bacterial strains, growth conditions, and persister isolation. Methicillin-resistant S. aureus strains, MW2 BAA-1707, ATCC 33591, and JE2, methicillin-susceptible S. aureus strains, NCTC 8325, Newman, and ATCC 29213, vancomycin-resistant S. aureus strain, VRS1, Enterococcus faecium E007, vancomycin-resistant E. faecium strains, C68,^7 WB312, and WC196, Klebsiella pneumoniae WGLW2 (BEI Resources, Manassas, Va., USA), Acinetobacter baumannii ATCC 17978, Pseudomonas aeruginosa PA14, and Enterobacter aerogenes ATCC 13048 were used to test antimicrobial activity (Table 1). S. aureus strains were grown in tryptic soy broth (TSB) (BD, Franklin Lakes, N.J., USA), and E. faecium was grown in brain-heart infusion (BHI) broth (BD, Franklin Lakes, N.J., USA) at 37° C. K. pneumoniae, A. baumannii, P. aeruginosa, and E. aerogenes were grown in Luria Bertani (LB) broth (BD, Franklin Lakes, N.J., USA) at 37° C.
(§2) Minimal inhibitory concentration (MIC) assay. The MICS of antibiotics were determined by the standard micro-dilution method recommended by the Clinical and Laboratory Standards Institute. MIC assays were conducted in biological triplicate.

S. aureus VRS1 = test: MIC assay; format: cell-based; conditions: Staphylococcus aureus
Text: as §1, §2

S. aureus ATCC 33591 = test: MIC assay; format: cell-based; conditions: Staphylococcus aureus
Text: as §1, §2

S. aureus JE2 = test: MIC assay; format: cell-based; conditions: Staphylococcus aureus
Text: as §1, §2

S. aureus Newman = test: MIC assay; format: cell-based; conditions: Staphylococcus aureus, read-out: Minimum inhibitory concentration
Text: as §1, §2

S. aureus NCTC 8325 = test: MIC assay; format: cell-based; conditions: Staphylococcus aureus
Text: as §1, §2

MRSA MW2 [1] = test: Serial passage resistance development; format: cell-based, S. aureus; conditions: 25 days, sub-MIC concentrations
Description: Serial passage resistance development. […] Briefly, an extended range of concentrations of nTZDpa was generated by two-fold serial dilution with cation-adjusted Mueller Hinton (CaMH) broth (Difco, Detroit, USA) from three different starting concentrations (20, 24, and 32 μg/mL) covering 0.1875 to 32.0 μg/mL, which extended over three rows of the 96-well plate. Three sets of the extended gradient of nTZDpa were created in the 96-well plate to provide triplicates of the experiment. […] MRSA MW2 overnight cultures were adjusted to 1×10^6 CFU/mL in CaMH broth, and 50 μL of the diluted cultures were dispensed into the 96-well plates containing 50 μL of the extended gradient of antibiotics. After incubation for 24 h at 35° C., bacterial growth was determined by measuring optical density at 600 nm using a SpectraMax plate reader (Molecular Devices, Sunnyvale, Calif.), and growth was defined as an optical density reading of ≥0.1. Bacterial cells growing at the highest concentration of the antimicrobial (just below the MIC) were diluted 1:1000 in CaMH broth and then used to inoculate the next day's serial-passage plate. The remaining bacterial cells were stored at −80° C. in CaMH broth with 16% glycerol. This process was repeated for 25 days.

P. aeruginosa PA14 = test: MIC assay; format: cell-based, Pseudomonas aeruginosa; conditions: Pseudomonas aeruginosa
Text: as §1, §2

E.faecium E007 = test: MIC assay; format: cell-based, Enterococcus faecium; conditions: Enterococcus faecium
Text: as §1, §2

E. faecium WB312 = test: MIC assay; format: cell-based, Enterococcus faecium; conditions: Enterococcus faecium
Text: as §1, §2

E. faecium WC196 = test: MIC assay; format: cell-based, Enterococcus faecium; conditions: Enterococcus faecium
Text: as §1, §2

E. faecium C68 = test: MIC assay; format: cell-based, Enterococcus faecium; conditions: Enterococcus faecium
Text: as §1, §2

A. baumannii ATCC 17978 = test: MIC assay; format: cell-based, Acinetobacter baumannii; conditions: Acinetobacter baumannii
Text: as §1, §2

E. aerogenes ATCC 13048 = test: MIC assay; format: cell-based, Enterobacter aerogenes; conditions: Klebsiella aerogenes
Text: as §1, §2

[2] = system: exponential-phase MRSA MW2; test: Killing kinetics assay; format: cell-based, S. aureus; conditions: 32 μg/ml (32× MIC), after 4 hours
Description: Killing kinetics assay. An MRSA MW2 overnight culture was diluted 1:10,000 in 25 mL TSB (˜10^5 CFU/mL) in a 250 mL flask and incubated at 37° C. with shaking at 200 rpm for 4.5 h until it reached exponential-phase (˜2×10^7 CFU/mL). 1 mL of the exponential phase cell culture was mixed with 1 mL of pre-warmed TSB containing twice the desired concentrations of antibiotics in a 96-well assay block (Corning Costar 3960). The assay block was incubated at 37° C. with shaking at 200 rpm. At every hour, 400 μl aliquots were taken, washed once with phosphate buffered saline (PBS), serially diluted and spot-plated onto tryptic soy agar (TSA, BD) plates. After incubation at 37° C. for overnight, colonies were counted to enumerate the number of cells. These experiments were conducted in biological triplicate.

S. aureus ATCC 29213 = test: MIC assay; format: cell-based; conditions: Staphylococcus aureus, ATCC29213, read-out: Minimum inhibitory concentration
Text: as §1, §2

S. aureus (MRSA) MW2 = test: Minimal inhibitory concentration (MIC) assay, micro-dilution; format: cell-based; conditions: Staphylococcus aureus, MRSA, read-out: Minimum inhibitory concentration
Text: as §1, §2

MRSA MW2 [3] = test: Antibiotic synergy test (checkerboard); format: cell-based, S. aureus; conditions: nTZDpa in combination with the named antibiotic, synergy if FICI ≤ 0.5
Description: Antibiotic synergy test. Antibiotic synergism was evaluated by the checkerboard method. Briefly, 2-fold serial dilutions of nTZDpa were combined with 2-fold serial dilutions of each other antibiotic, which created an 8×8 matrix in a 96-well microtiter plate. The fractional inhibitory concentration index (FICI) was calculated as follows: FICI=MIC of compound A in combination/MIC of compound A alone+MIC of compound B in combination/MIC of compound B alone. The interaction between two compounds was defined, as follows: synergy if FICI≤0.5, no interaction if 0.5<FICI≤4, and antagonism if FICI>4.

MRSA MW2 [4] = test: Deep-seated mouse thigh infection model; format: in vivo; conditions: vancomycin 25 mg/kg i.p., gentamicin 30 mg/kg s.c., nTZDpa 50 mg/kg i.p., 5 days
Description: Deep-seated mouse thigh infection model. In vivo efficacy of nTZDpa alone or in combination with gentamicin against MRSA persisters was evaluated by a previously described neutropenic mouse thigh infection model with modifications. Six-week-old female CD-I mice (20-25 g, Charles River Laboratories, Wilmington, Mass., USA) were obtained from Charles River Laboratories (Wilmington, Mass., USA). The CD-I mice were rendered neutropenic by administering 150 mg/kg and 100 mg/kg of cyclophosphamide intraperitoneally (i.p.) at 4 days and 1 day before infection, respectively. On the day of infection, overnight culture of MRSA MVV2 was washed 3-time with sterile saline and diluted to 10^7 CFU/ml in the saline. 50 μl of the diluted culture (5×10^5 CFU per mouse) was injected to the right thigh of each mouse. nTZDpa was dissolved in Kolliphor EL (Sigma-Aldrich, St Louis, Mo., USA)/ethanol 1:1 and then diluted 1:10 in saline to a final concentration of 50 mg/kg. At 24 h post-infection, groups of mice (n=10) were treated with 30 mg/kg gentamicin subcutaneously (s.c.) every 12 h, 25 mg/kg vancomycin i.p. every 24 h, 50 mg/kg nTZPpa i.p. every 24 h, or the combination of 50 mg/kg nTZDpa i.p. every 24 h and 30 mg/kg gentamicin s.c. every 12 h for 5 days. Control mice were injected with 250 μl of 10% Kolliphor EL/ethanol in saline i.p. every 24 h for 5 days. Mice were euthanized at 96 h post-infection. Blood was collected by cardiac puncture, and the infected thighs were aseptically excised, weighed, and stored at 4° C. until homogenization. To evaluate hepatic and renal toxicities, the levels of alanine aminotransferase and blood urea nitrogen were analyzed with commercially available kits, following the manufacturer's protocol (Pointe Scientific, Canton, Mich., USA). Thighs were homogenized in PBS, serially diluted with PBS, and spot-plated on TSA plates. […] Statistical significance among each group was analyzed by one-way ANOVA with post-hoc Tukey test using PASW Statistics 18 (SPSS Inc. Chicago, Ill., USA).

Work on O=C(O)c1cn(C2CC2)c2cc(N3CCNCC3)c(F)cc2c1=O [Ciprofloxacin, ciprofloxacin] yielded an MIC (K. pneumoniae WGLW2; K. pneumoniae WGLW2, read-out: Minimum inhibitory concentration) of 0.031 µg/mL (≈ 0.0936 µM), an MIC (S. aureus VRS1; S. aureus VRS1, read-out: Minimum inhibitory concentration) of 64 µg/mL (≈ 193 µM) and an MIC (S. aureus ATCC 33591; ATCC33591, S. aureus ATCC 33591, read-out: Minimum inhibitory concentration) of 0.25 µg/mL (≈ 0.754 µM). It also gave an MIC (S. aureus JE2; S. aureus JE2, read-out: Minimum inhibitory concentration) of 16 µg/mL (≈ 48.3 µM), an MIC (S. aureus Newman; S. aureus Newman) of 0.25 µg/mL (≈ 0.754 µM) and an MIC (S. aureus NCTC 8325; NCTC8325, S. aureus NCTC 8325, read-out: Minimum inhibitory concentration) of 0.125 µg/mL (≈ 0.377 µM). For the same compound, the “increase of MIC over wild-type after serial passage” value (MRSA MW2 [1]) was 32 fold, the MIC (P. aeruginosa PA14; P. aeruginosa PA14, read-out: Minimum inhibitory concentration) was 0.063 µg/mL (≈ 0.19 µM) and the MIC (E.faecium E007; E.faecium E007, read-out: Minimum inhibitory concentration) was > 64 µg/mL. For the same compound, the MIC (E. faecium WB312; E. faecium WB312, read-out: Minimum inhibitory concentration) was 32 µg/mL (≈ 96.6 µM), the MIC (E. faecium WC196; E. faecium WC196, read-out: Minimum inhibitory concentration) was 1 µg/mL (≈ 3.02 µM) and the MIC (E. faecium C68; E. faecium C68, read-out: Minimum inhibitory concentration) was > 64 µg/mL. It also gave an MIC (A. baumannii ATCC 17978; ATCC17978, A. baumannii ATCC 17978, read-out: Minimum inhibitory concentration) of 0.25 µg/mL (≈ 0.754 µM) and an MIC (E. aerogenes ATCC 13048; ATCC13048, E. aerogenes ATCC 13048, read-out: Minimum inhibitory concentration) of 0.031 µg/mL (≈ 0.0936 µM).

For CN[C@H](CC(C)C)C(=O)N[C@H]1C(=O)N[C@@H](CC(N)=O)C(=O)N[C@H]2C(=O)N[C@H]3C(=O)N[C@H](C(=O)N[C@H](C(=O)O)c4cc(O)cc(O)c4-c4cc3ccc4O)[C@H](O)c3ccc(c(Cl)c3)Oc3cc2cc(c3O[C@@H]2O[C@H](CO)[C@@H](O)[C@H](O)[C@H]2O[C@H]2C[C@](C)(N)[C@H](O)[C@H](C)O2)Oc2ccc(cc2Cl)[C@H]1O [Vancomycin, vancomycin], the decrease in viability [2] was 2 log, the MIC (K. pneumoniae WGLW2; WGLW2, read-out: Minimum inhibitory concentration) was > 64 µg/mL and the MIC (S. aureus VRS1; VRS1, read-out: Minimum inhibitory concentration) was > 64 µg/mL. The MIC (S. aureus ATCC 29213) was 1 µg/mL (≈ 0.69 µM), the MIC (S. aureus ATCC 33591; ATCC33591, read-out: Minimum inhibitory concentration) was 2 µg/mL (≈ 1.38 µM) and the MIC (S. aureus JE2; JE2, read-out: Minimum inhibitory concentration) was 1 µg/mL (≈ 0.69 µM). For the same compound, the MIC (S. aureus Newman; NEWMAN) was 2 µg/mL (≈ 1.38 µM), the MIC (S. aureus NCTC 8325; NCTC8325, read-out: Minimum inhibitory concentration) was 1 µg/mL (≈ 0.69 µM) and the MIC (P. aeruginosa PA14; PA14, read-out: Minimum inhibitory concentration) was > 64 µg/mL. For the same compound, the MIC (E.faecium E007; E007, read-out: Minimum inhibitory concentration) was 1 µg/mL (≈ 0.69 µM), the MIC (E. faecium WB312; WB312, read-out: Minimum inhibitory concentration) was 16 µg/mL (≈ 11 µM) and the MIC (E. faecium WC196; WC196, read-out: Minimum inhibitory concentration) was 64 µg/mL (≈ 44.2 µM). The MIC (E. faecium C68; C68, read-out: Minimum inhibitory concentration) was 64 µg/mL (≈ 44.2 µM), the MIC (S. aureus (MRSA) MW2) was 1 µg/mL (≈ 0.69 µM) and the MIC (A. baumannii ATCC 17978; ATCC17978, read-out: Minimum inhibitory concentration) was > 64 µg/mL. The “FICI (fractional inhibitory concentration index)” value (MRSA MW2 [3]) was 1, the MIC (E. aerogenes ATCC 13048; ATCC13048, read-out: Minimum inhibitory concentration) was > 64 µg/mL and the “MRSA CFUs / viability of persisters in thigh, single agent” value (MRSA MW2 [4]) was “neither vancomycin nor gentamicin reduced MRSA CFUs”.
